The record followed here is patent US11246946B2, “Methods of treatment using ultrasmall nanoparticles to induce cell death of nutrient-deprived cancer cells via ferroptosis” (priority 2015, dated 2022).

One assay relates to glutathione. Put plainly: Glutathione quantification. Format: cell-based. The conditions noted are these: MCF10A, full or amino acid-free media, 24 hours; 15 μM particles or 400 μM BSO. The protocol:
For glutathione measurements, HT-1080 cells were plated on 6 cm cell culture dishes, incubated with 15 μM α-MSH-tagged nanoparticles in amino acid-free DMEM+10% dialyzed FBS and harvested approximately 2 hours before the expected time of death. As controls, cells were treated with a mix of 3 parts full or amino acid-free DMEM and 1 part H2O, or 100 μM BSO in full media. Cells were washed 3× with cold PBS and harvested through cell scraping in 50 μL cold lysis buffer. Protein concentrations were measured using the BCA assay and sample volumes were adjusted so that each had the same final protein concentration. Total glutathione was measured using the Glutathione Assay Kit (Cayman Chemicals, 703002) and reduced glutathione was measured using the QuantiChrom™ Glutathione Assay Kit (BioAssay Systems, DIGT-250) according to manufacturer's instructions.

The subject of assay [1] is MCF10A human mammary epithelial cells. Put plainly: Cell death (Sytox green+) by time-lapse microscopy, MCF10A. Format: cell-based. The note with it: for effect on nanoparticle-induced cell death / effect on α-MSH-PEG-C′ dot-induced cell death: AA-st plus 15 μM α-MSH-PEG-C′ dots, 40 hours; for effect on nanoparticle-induced cell death: 50 μM BHA, 200 μM ascorbic acid, 100 μM Trolox, 10 mM NAC, 5 mM GSH; for effect on α-MSH-PEG-C′ dot-induced cell death: inhibitor 1 μM. The protocol:
(§1) MEF and HT1080 cells were cultured in Dulbecco's modified Eagle's medium (DMEM) (MSKCC Media Preparation Facility) supplemented with 10% fetal bovine serum (FBS, Sigma, St. Louis, Mo.) with penicillin/streptomycin (Corning, Corning, N.Y.). MCF10A cells were cultured in DMEM/F12 (Gibco, Grand Island, N.Y.) supplemented with 5% horse serum (Atlanta Biologicals, Flowery Branch, Ga.), 20 ng/ml EGF (Peprotech, Rocky Hill, N.J.), 10 μg/ml insulin (Sigma), 0.5 μg/ml hydrocortisone (Sigma), and 100 ng/ml cholera toxin (Sigma) with penicillin/streptomycin. M21, BxPC3, H1650, and 786-O cells were cultured in RPMI-1640 (Gibco) supplemented with 10% FBS with penicillin/streptomycin. SKOV3 cells were cultured in McCoy's 5a modified medium (Gibco) supplemented with 10% FBS with penicillin/streptomycin. Amino acid-free medium was prepared by dialyzing heat-inactivated FBS (for MEF, HT1080, M21, BxPC3, H1650, and SKOV3 cells) or horse serum (for MCF10A cells) for 4 h, followed by overnight incubation at 4° C. in phosphate-buffered saline (PBS) in MWCO 3500 dialysis tubing (21-152-9; Fisherbrand, Pittsburgh, Pa.) and addition to base media prepared without amino acids. PRetro-Lamp1-GFP was introduced into M21 cells by retroviral transduction, and stable cell lines were selected with puromycin (2 μg ml^−1).
(§2) NIS Elements software (Nikon, Melville, N.Y.) was used.

The next assay has as its system lipid ROS. Put plainly: C11-BODIPY imaging of lipid ROS before cell death. Format: cell-based. The conditions noted are these: erastin 5 μM plus liproxstatin-1, 6 hours after control cells underwent cell death.
Description: as §2

The subject of another assay is HT-1080 tumors. Put plainly: HT-1080 flank xenograft, multi-dose i.v. particle treatment. Format: in vivo, mice. The protocol: All animal experiments were performed in accordance with protocols approved by the Institutional Animal Care and Use Committee of Memorial Sloan-Kettering Cancer Center and followed NIH guidelines for animal welfare. Human melanoma (M21) xenografts were generated on the shaved flanks of immunodeficient male SCID/Beige (C.B-17/IcrHsd-Prkdc^scidLyst^bg-J) mice (6-8 weeks old; Harlan Laboratories, South Easton, Mass.). Human sarcoma HT1080 and 786-O flank xenografts[…]) were additionally generated using the same model for intravenous particle injection. Average initial tumor volumes of 45-75 mm^3 were used for all experiments.
Five million M21 cells, cultured in serum-supplemented media, were subcutaneously implanted into the right flank of mice using a 23-gauge trocar needle to establish melanoma xenografts 2 days after particle exposure (n=3) or without exposure (n=3). […] Tumor sizes were measured using calipers over the treatment interval. […] Two perpendicular diameters (d1≤d2) of the tumor used to calculate the tumor volume (V; 4/3·π·d1^2·d2/8) were measured with calipers daily following the injection of cells.
Volume-time profiles were compared between the two treatment groups using robust standard errors calculated using by a generalized estimating equations approach. […]

The subject of assay [2] is mouse embryo fibroblasts (MEF). Put plainly: Cell death (Sytox green+) by time-lapse microscopy, MEF. Format: cell-based. The note with it: wt MEFs, 100 ng/ml TNFα, 1 μg/ml CHX and 20 μM zVAD, plus 30 μM Nec-1. The protocol: as §1, §2
A further assay deals with amino acid-starved cells. The conditions noted are these: amino acid-starvation conditions, FAC 400 μM.
Assay [3] concerns ferritin heavy chain (FTH1). Put plainly: Ferritin heavy chain western blot. Format: cell-based. The conditions noted are these: amino acid-starved cells, 24 hours; 15 μM particles, FAC 400 μM, DFO 100 μM.

Take `CCCCS(=N)(=O)CCC(N)C(=O)O` (stereo not shown) [BSO, Buthionine sulphoximine]: the “reduced glutathione (GSH) levels” value with glutathione was “reduce glutathione levels”.
Turning to `CC(=O)N[C@@H](CS)C(=O)O` [N-acetylcysteine], the “effect on nanoparticle-induced cell death” value in assay [1] is reported as “inhibited”.
For `O=C1O[C@H]([C@@H](O)CO)C(O)=C1O` [ascorbic acid, Ascorbic acid], the “effect on nanoparticle-induced cell death” value in assay [1] is listed as “inhibited”.
Same read-out and setting: under `COc1ccc(O)c(C(C)(C)C)c1` [butylated hydroxyanisole, Butylated hydroxyanisole] stands “inhibited”.
As for `C/C=C/[C@H]1O[C@@](O)([C@@H](C)[C@H](O)[C@H](C)[C@H]2OC(=O)/C(OC)=C/C(C)=C/[C@@H](C)[C@@H](O)[C@@H](CC)[C@@H](O)[C@H](C)C/C(C)=C/C=C/[C@@H]2OC)C[C@@H](O[C@H]2C[C@@H](O)[C@H](OC(N)=O)[C@@H](C)O2)[C@@H]1C` [concanamycin A, Concanamycin A], the cell death morphology entry in assay [1] (amino acid-free media, 100 nM ConA) is recorded as “undergo cell death with morphologic features of apoptosis”.
On to `C[C@@H]1C[C@@H]([C@H](O)CC2CC(=O)NC(=O)C2)C(=O)[C@@H](C)C1` [cycloheximide, Cycloheximide], for which, in assay [1] (50 μg/ml cycloheximide), the “temporal pattern of apoptotic cell death” value is “asynchronous pattern of cell death”.
Consider `CCOC(=O)c1ccc(NC2CCCCC2)c(N)c1` [ferrostatin-1, Ferrostatin-1], for which the “effect on α-MSH-PEG-C′ dot-induced cell death” value in assay [1] is “rescued cell viability”.
Take `N[C@@H](CCC(=O)N[C@@H](CS)C(=O)NCC(=O)O)C(=O)O` [glutathione, Glutathione]: in assay [1], the “effect on nanoparticle-induced cell death” value was “inhibited”.
As for `Clc1cccc(CN=C2Nc3ccccc3NC23CCNCC3)c1` [liproxstatin-1, Liproxstatin-1], the “effect on C11-BODIPY staining induced by erastin” value with lipid ROS is reported as “inhibits C11-BODIPY staining induced by erastin treatment”. The “average daily tumor growth” value in the assay with HT-1080 tumors (HT1080, particle-exposed tumors (three 60 μM i.v. doses) treated with daily i.p. liproxstatin-1 125 mg/kg, 10 days, 95% CI: 10.1-18.9) is listed as 14.6 mm^3. Further, in the assay with HT-1080 tumors (HT1080, CI: 13.1 to 17.6, p<0.001), the “difference in average daily tumor growth, particles plus liproxstatin-1 vs particles alone” value is recorded as 15.3 mm^3. In addition, in assay [1], the “effect on α-MSH-PEG-C′ dot-induced cell death” value was “rescued cell viability”.
Turning to `CN1C(=O)C(Cc2c[nH]c3ccccc23)NC1=S` (stereo not shown) [necrostatin-1, Necrostatin-1], in assay [2], the “cell death on necroptosis induction” value is reported as “do not undergo cell death”.
Turning to `Cc1c(C)c2c(c(C)c1O)CCC(C)(C(=O)O)O2` (stereo not shown) [trolox, Trolox], in assay [1], the “effect on nanoparticle-induced cell death” value is reported as “inhibited”.
Turning to Ferric ammonium citrate, the “percent cell death (Sytox green+)” value with amino acid-starved cells is on record as “sufficient to mimic α-MSH-PEG-C′ dot-induced death”. Moreover, in assay [3], the “ferritin heavy chain (FTH1) expression” value is “increased”.
